Measured values reported in the NIST ThermoML archive (doi:10.1021/je8001267).

Assay: wn = mass fraction of the nth substance listed
Settings: Liquid

Cl.N [ammonium chloride (NH4Cl)] + N
mass density [kg/m3]
Settings | 303.15 K | 313.15 K | 323.15 K | 333.15 K | 343.15 K | 353.15 K | 363.15 K | 373.15 K
10000 kPa, w1 = 0.1133 | 668.2 | 655.5 | 642.7 | 628.8 | 613.4 | 597.6 | 581.2 | 568.8
10000 kPa, w1 = 0.2224 | 729.3 | 716 | 707.1 | 694.9 | 682.5 | 669.2 | 654.5 | 644.4
10000 kPa, w1 = 0.3134 | 787.8 | 778.1 | 767.7 | 756.3 | 745.7 | 735.4 | 724.1 | 713.8
10000 kPa, w1 = 0.4285 | 833 | 825.9 | 817.4 | 809.5 | 801.9 | 793.4 | 784.2 | 776.9
10000 kPa, w1 = 0.5068 | 873.3 | 867.9 | 860 | 853.2 | 846 | 838 | 830.5 | 823.8
15000 kPa, w1 = 0.1133 | 673.3 | 660.5 | 648.4 | 634.7 | 620.3 | 605.7 | 588.8 | 577.2
15000 kPa, w1 = 0.2224 | 733.1 | 720.5 | 711.9 | 699.8 | 688.1 | 675.5 | 661.6 | 651.7
15000 kPa, w1 = 0.3134 | 791.5 | 783.6 | 772.6 | 761.1 | 751.6 | 741.5 | 731.7 | 721.3
15000 kPa, w1 = 0.4285 | 836.1 | 828.4 | 820.9 | 812.4 | 805.2 | 796.6 | 789.2 | 781.3
15000 kPa, w1 = 0.5068 | 877.7 | 871.7 | 864.7 | 857.9 | 850.6 | 844 | 837 | 830.3
20000 kPa, w1 = 0.1133 | 677.8 | 665.3 | 654.2 | 640.8 | 627.1 | 612.9 | 596.4 | 585.5
20000 kPa, w1 = 0.2224 | 736.6 | 725.1 | 715.8 | 704.3 | 692.5 | 680.2 | 667.3 | 657.3
20000 kPa, w1 = 0.3134 | 795.8 | 786.8 | 776.3 | 765.1 | 755 | 746.5 | 736.8 | 726.2
20000 kPa, w1 = 0.4285 | 838.2 | 831 | 823.4 | 814.4 | 807.6 | 799.5 | 792 | 784.1
20000 kPa, w1 = 0.5068 | 880.4 | 874.4 | 867.9 | 860.5 | 854.2 | 847.5 | 840.5 | 834
25000 kPa, w1 = 0.1133 | 682.2 | 670.1 | 658.7 | 646.7 | 633.1 | 619.7 | 603.4 | 593
25000 kPa, w1 = 0.2224 | 740.1 | 729.5 | 719.7 | 708.7 | 696.9 | 684.7 | 672.2 | 662.3
25000 kPa, w1 = 0.3134 | 798.5 | 789.7 | 779.4 | 768.2 | 758.3 | 750.3 | 741.5 | 730.7
25000 kPa, w1 = 0.4285 | 840.8 | 833.5 | 825.9 | 817.9 | 810 | 801.9 | 794.3 | 786.5
25000 kPa, w1 = 0.5068 | 883.2 | 876.6 | 870.6 | 863.1 | 857.4 | 850.1 | 843.5 | 837
30000 kPa, w1 = 0.1133 | 686.7 | 674.6 | 663.4 | 652.3 | 638.6 | 626.1 | 610.6 | 600.3
30000 kPa, w1 = 0.2224 | 743.8 | 734.2 | 723.4 | 712.9 | 701.2 | 689.2 | 677.3 | 667.2
30000 kPa, w1 = 0.3134 | 801.6 | 792.5 | 782.4 | 770.8 | 761.1 | 754 | 745.7 | 734.6
30000 kPa, w1 = 0.4285 | 842.9 | 835.6 | 827.4 | 820.4 | 812 | 804.2 | 796.4 | 788.7
30000 kPa, w1 = 0.5068 | 885.4 | 878.8 | 872.8 | 865.3 | 859.7 | 852.7 | 846 | 839.6
